Patent US5430032A, “Benzopyrido piperidylidene compounds, compositions, methods of manufacture and methods of use” (Schering Corporation, priority 1994, dated 1995)

Legend:
[1] = test system: platelet-activating factor (PAF); experiment: Platelet aggregation assay (PAF-induced aggregation, human platelet-rich plasma); format: cell-based; details: PAF-induced aggregation of human platelets, in vitro, read-out: PAF Antagonism (in vitro) IC50
Method: Platelet-activating factor (PAF) causes aggregation of platelets by a receptor-mediated mechanism. Therefore, PAF-induced platelet aggregation provides a simple and convenient assay to screen compounds for PAF antagonism. Human blood (50 mL) was collected from healthy male donors in an anticoagulant solution (5 mL) containing sodium citrate (3.8%) and dextrose (2%). Blood was centrifuged at 110×g for 15 min. and the supernatant platelet-rich plasma (PRP) carefully transferred into a polypropylene tube. Platelet-poor-plasma (PPP) was prepared by centrifuging PRP at 12,000×g for 2 min. (Beckman Microfuge B). PRP was used within 3 hr. of drawing the blood. PAF was dissolved in chloroform:methanol (1:1, v/v) at a concentration of 2 mg/mL and stored at -70° C. An aliquot of this solution was transferred to a polypropylene tube and dried under a flow of nitrogen gas. To the dried sample was added Hepes-saline-BSA (BSA=bovine serum albumen) buffer (25 mM Hepes, pH 7.4, […], 0.7 mM MgCl2 and 0.1% BSA) to obtain a 1 mM solution and sonicated for 5 min. in a bath sonicator. This stock solution was further diluted to appropriate concentrations in Hepes-saline-BSA buffer. Collagen (Sigma) and adenosine diphosphate (ADP) (Sigma) were purchased as solutions. Test compounds were initially dissolved in dimethyl sulfoxide (DMSO) at a concentration of 50 mM and then further diluted in Hepes-saline-BSA buffer to achieve appropriate concentrations.
When an aggregating agent such as PAF is added to PRP, platelets aggregate. An aggregometer quantifies this aggregation by measuring and comparing light (infra-red) transmission through PPP and PRP. Aggregation assays were performed using a dual-channel aggregometer (Model 440, Chrono-Log Corp., Havertown, Pa.). PRP (0.45 mL) in aggregometer cuvettes was continually stirred (37° C.). Solutions (50 μL) of test compounds or vehicle were added to the PRP and, after incubation for 2 min., 10-15 μl aliquots of PAF solution were added to achieve a final concentration of 1-5×10^-8 M. In different experiments the aggregatory response was kept within a set limit by varying the concentration of PAF. Incubations were continued until the increase in light transmission reached a maximum (usually 2 min.). This increase in light transmission reflecting platlet aggregation is transmitted to a computer by the Chrono-Log model 810 AGGRO/LINK interface. The AGGRO/LINK calculates the slope of transmission change, thus providing the rate of aggregation. Values for inhibition were calculated by comparing rates of aggregation obtained in the absence and the presence of the compound. For each experiment, a standard PAF antagonist such as 8-chloro-6,11-dihydro-11-(1-acetyl-4-piperidylidene)-5H-benzo[5,6]cyclohepta[1,2-b]pyridine was used as a positive control.
Compounds that inhibit PAF-induced aggregation were tested against several other aggregating agents including collagen (0.2 mg/mL) and ADP (2 μM). Compounds showing no activity against these latter agents were considered to be specific PAF antagonists.

PAF = experiment: PAF-induced bronchospasm in guinea pigs (in vivo, oral); parameters: species or system guinea pig; details: for effect on the PAF response, compared with the histamine response: both responses at similar doses, in words; for Agonist Bronchospasm (in vivo)-Oral, PAF, Inhibition: 2 hours after dose, PAF 0.4 μg/kg i.v.
Histamine = experiment: Histamine-induced bronchospasm in guinea pigs (in vivo, oral); parameters: species or system guinea pig; details: for effect on the histamine response, compared with the PAF response: both responses at similar doses, in words; for Agonist Bronchospasm (in vivo)-Oral, Histamine, Inhibition: 2 hours after dose, histamine 10 ug/kg i.v.

IC50 [1] [nM]	SMILES	effect on the PAF response, compared with the histamine response (PAF)	Agonist Bronchospasm (in vivo)-Oral, PAF, Inhibition (PAF; 5 mg/kg) [%]	effect on the histamine response, compared with the PAF response (Histamine)	Agonist Bronchospasm (in vivo)-Oral, Histamine, Inhibition (Histamine; 3 mg/kg) [%]	Agonist Bronchospasm (in vivo)-Oral, PAF, Inhibition (PAF; 3 mg/kg) [%]	Agonist Bronchospasm (in vivo)-Oral, PAF, Inhibition (PAF; 1 mg/kg) [%]	Agonist Bronchospasm (in vivo)-Oral, Histamine, Inhibition (Histamine; 10 mg/kg) [%]
200	O=C(c1cc[n+]([O-])cc1)N1CCN(C2c3ccc(Cl)cc3OCc3cccnc32)CC1 (stereo not shown) [Compound 4]	–	–	–	5	–	68	–
300	O=C(c1cc[n+]([O-])cc1)N1CCN(C2c3ccc(Cl)cc3SCc3cccnc32)CC1 (stereo not shown) [Compound 5]	–	–	–	–	–	38	9

The remaining lines, values behind:

SMILES	IC50 [1] [nM]	effect on the PAF response, compared with the histamine response (PAF)	Agonist Bronchospasm (in vivo)-Oral, PAF, Inhibition (PAF; 5 mg/kg) [%]	effect on the histamine response, compared with the PAF response (Histamine)	Agonist Bronchospasm (in vivo)-Oral, Histamine, Inhibition (Histamine; 3 mg/kg) [%]	Agonist Bronchospasm (in vivo)-Oral, PAF, Inhibition (PAF; 3 mg/kg) [%]	Agonist Bronchospasm (in vivo)-Oral, PAF, Inhibition (PAF; 1 mg/kg) [%]	Agonist Bronchospasm (in vivo)-Oral, Histamine, Inhibition (Histamine; 10 mg/kg) [%]
CC(=O)N1CCC(=C2c3ccc(Cl)cc3CCc3cccnc32)CC1 [Compound 1]	600	there is an effect on both responses at similar doses	49	there is an effect on both responses at similar doses	49	–	–	–
O=C(c1cc[n+]([O-])cc1)N1CCC(=C2c3ccc(Cl)cc3CCc3cccnc32)CC1 [Compound 2]	200	there is an effect on both responses at similar doses	–	there is an effect on both responses at similar doses	37	93	–	–
O=C(c1cc[n+]([O-])cc1)N1CCC(=C2c3ccc(Cl)cc3SCc3cccnc32)CC1 [Compound 3]	40	–	–	–	–	–	91	9
